The text below walks through data of the Deep4Chem optical property database.

This series can be described thus: solvent given as SMILES.

Molecules are shown by their SMILES.

Where the note is “in CO”, `Nc1ccc2c3c(cccc13)C(=O)c1ccccc1-2` displayed an absorption maximum of 514.14 nm.
For `CC(C)(C)/C=C1\C=C(c2ccccc2)C=C1c1ccccc1`, the absorption maximum (in C1CCOC1) stood at 400 nm.
As to `Fc1ccccc1N1c2c(sc3ccccc23)Sc2sc3ccccc3c21`, the absorption maximum (in ClCCl) is 353 nm.
Where the note is “in ClC(Cl)Cl”, `Cc1ccc2c3ccc(C)cc3c3cc4c(C)cc(=O)oc4cc3c2c1` returned an absorption maximum of 386 nm.
Consider `N#C/C(=N/Nc1ccc(C#N)cc1)c1nc(-c2ccccc2)cs1`, for which the absorption maximum runs as follows: (in CC#N) 396 nm; (in CCO) 398 nm; (in CN(C)C=O) 477 nm; (in Cc1ccccc1) 401 nm; (in ClCCl) 399 nm.
With `COc1cccc(C2=CC3=C(c4c(C)cc(C)cc4C)c4cc(-c5cccc(OC)c5)c(-c5cccc(OC)c5)n4[B-](F)(F)[N+]3=C2c2cccc(OC)c2)c1`, the absorption maximum turned out to be 596 nm (in C1CCCCC1); 592 nm (in C1CCOC1); 581 nm (in CC#N); 596 nm (in Cc1ccccc1); 588 nm (in ClCCl).
Take `O=C1c2cccc3c(C#CC#Cc4ccc5c6c(cccc46)C(=O)N(c4ccccc4)C5=O)ccc(c23)C(=O)N1c1ccccc1`: the absorption maximum (in ClCCl) is 386 nm.
The compound `O=C1CC(c2ccc([N+](=O)[O-])cc2)c2c(c3ccccc3c3nc4ccccc4nc23)O1` (stereo unspecified) had an absorption maximum (in ClC(Cl)Cl) of 408 nm.
Turning to `O=S(=O)([O-])c1ccc(O)c2ccccc12`, the absorption maximum by setting is: (in C1COCCO1) 322 nm; (in CC#N) 322 nm; (in CC(C)O) 321 nm; (in CCCCO) 321 nm; (in CCO) 321 nm; (in CCOC(C)=O) 322 nm. This compound had an absorption maximum (in CN(C)C=O) of 324 nm, an absorption maximum (in CO) of 321 nm, an absorption maximum (in CS(C)=O) of 325 nm and an absorption maximum (in O) of 319 nm.
`COc1cc(OC)cc(C2=[O+][B-](F)(F)OC(c3cccs3)=C2)c1` yielded an absorption maximum (in ClCCl) of 391 nm.
`CSc1sc(C(C)=O)c2nn[nH]c(=O)c12`: the absorption maximum is, setting by setting: (in C1CCOC1) 392.5 nm; (in CC#N) 393 nm; (in CCO) 397 nm; (in CN(C)C=O) 404 nm; (in CO) 396 nm; (in CS(C)=O) 400.5 nm.
Where the note is “in c1cc(-c2cccc(-n3c4ccccc4c4ccccc43)c2)cc(-n2c3ccccc3c3ccccc32)c1”, `c1ccc(-c2nc(-c3ccccc3)nc(-c3ccc(-c4ccc5c(c4)C4(c6ccccc6-c6ccccc64)c4cc(-c6ccc(-c7nc(-c8ccccc8)nc(-c8ccccc8)n7)cc6)ccc4N5c4ccccc4)cc3)n2)cc1` gave an absorption maximum of 405.11 nm.
Consider `c12c3c4c5c1c1c6c7c2c2c8c3c3c9c4c4c%10c5c5c1c1c6c6c%11c%12c%13c%14c%15c%16c%17c%14c%14c%18c%13c%11c1c1c5c%10c5c(c%14c%10c%17c%11c%13c%16c%14c%16c%15c%12c%12c%16c(c2c7c%126)c2c8c3c(c%13c%142)c2c9c4c5c%10c%112)c%181`, for which the absorption maximum (in CC1CCCCC1) turned out to be 470 nm.
In the case of `Cc1ccc(-c2cc(-c3ccccc3)c(C#N)c(=S)[nH]2)cc1`, the absorption maximum reads like this: (in C1CCCCC1) 488 nm; (in C1COCCO1) 442 nm; (in CC#N) 430 nm; (in CCOCC) 440 nm; (in CN(C)C=O) 438 nm; (in ClC(Cl)(Cl)Cl) 446 nm.
In the case of `COc1cc(OC)cc(C2=C3C(C)=C(I)C(/C=C/c4c[nH]c5ccc([N+](=O)[O-])cc45)=[N+]3[B-](F)(F)n3c(/C=C/c4c[nH]c5ccc([N+](=O)[O-])cc45)c(I)c(C)c32)c1`, the absorption maximum by setting is: (in C1CCOC1) 695 nm; (in CS(C)=O) 712 nm; (in ClCCl) 690 nm.
`COc1ccc(-c2cc3c(ccc4sc5ccc6sc(-c7ccc(C#N)cc7)cc6c5c43)s2)cc1` had an absorption maximum (in ClCCl) of 383 nm.
For `CCC1=C(C)C2=Cc3c(I)c(I)c(I)n3[B-](F)(F)[N+]2=C1C`, the absorption maximum runs as follows: (in C1CCCCC1) 543.5 nm; (in CC(C)=O) 528 nm; (in CCO) 536 nm; (in CCOC(C)=O) 532 nm; (in CO) 531.5 nm; (in OCC(F)(F)F) 523 nm.
For the setting “in ClC(Cl)Cl”, `CCCCCCCCCCCCc1sc(CCCCCC)c2c3cc(CCCCCC)sc3c3sc(CCCCCC)cc3c12` registered an absorption maximum of 373 nm.
In the case of `CCN1C(=CC2=C([O-])C(=Cc3sc4ccccc4[n+]3CC)C2=O)Sc2ccccc21`, the absorption maximum is, setting by setting: (in CO) 649 nm; (in ClC(Cl)Cl) 669 nm; (in ClCCl) 670 nm.
Under “in ClCCl”, `F[B-]1(F)Oc2ccc3ccccc3c2-c2c3c(c4c([n+]21)CCc1ccccc1-4)CCc1ccccc1-3` came in with an absorption maximum of 346 nm.
In the case of `CNC(=O)[C@H](C)NC(=O)c1cccc2c1C#Cc1c(N)cccc1OCCCO2`, the absorption maximum runs as follows: (in CC#N) 347 nm; (in ClCCl) 345 nm.
Compound `Cc1cc(C)cc(C)c1` yielded an absorption maximum (in C1CCCCC1) of 261.57 nm.
Turning to `c1ccc(N(c2ccccc2)c2ccc3c4cccc5c(N(c6ccccc6)c6ccccc6)ccc(c6cccc2c63)c54)cc1`, the absorption maximum runs as follows: (in C1CCCCC1) 493 nm; (in C1CCOC1) 489 nm; (in CC#N) 483 nm; (in Cc1ccccc1) 492 nm; (in ClCCl) 490 nm.
Turning to `F[B-]1(F)Oc2ccccc2-c2cc(-n3c4ccccc4c4ccccc43)cc[n+]21`, the absorption maximum (in Cc1ccccc1) stood at 366 nm.
Turning to `Cc1ccc(C)n1-c1ccccc1`, the absorption maximum by setting is: (in CC#N) 234 nm; (in CCCCCC) 240 nm.
Take `Cc1cc(C)c(B2c3cc(C(C)(C)C)cc4ccc5c6ccccc6c6cc(C(C)(C)C)cc2c6c5c34)c(C)c1`: the absorption maximum (in C1CCCCC1) was found to be 424 nm.
As for `CC(=O)c1ccc(-c2ccc3c(c2)C(=O)c2cc(-c4ccc(C(C)=O)cc4)ccc2-3)cc1`, the absorption maximum (in C1CCOC1) is 343 nm.
Consider `O=C1O[B-]2(OC1=O)OC(c1ccccc1)=CC(c1ccc3ccccc3c1)=[O+]2`, for which the absorption maximum by setting is: (in CC#N) 435 nm; (in ClC(Cl)(Cl)Cl) 435 nm.
For `CN1/C(=C/C=C(/C=C/C2=[N+](C)c3ccccc3C2(C)C)c2ccccc2)C(C)(C)c2ccccc21`, the absorption maximum stood at 640 nm (in CCO), 637 nm (in CO), 645 nm (in CS(C)=O) and 634 nm (in O).
Consider `N#Cc1ccc(N(c2ccc(C#N)cc2)c2ccc3c4cccc5c(N(c6ccc(C#N)cc6)c6ccc(C#N)cc6)ccc(c6cccc2c63)c54)cc1`, for which the absorption maximum runs as follows: (in C1CCCCC1) 446 nm; (in C1CCOC1) 452 nm; (in CC#N) 446 nm; (in Cc1ccccc1) 451 nm; (in ClCCl) 450 nm.
With `Cc1ccc(C2=[N+]3C(=Nc4c5ccccc5c(-c5ccc(C)s5)n4[B-]3(F)F)c3ccccc32)s1`, the absorption maximum (in ClCCl) was 793 nm.
Take `O=C1c2cc(-n3c4ccccc4c4ccccc43)ccc2S(=O)(=O)c2ccc(-n3c4ccccc4c4ccccc43)cc21`: the absorption maximum is, setting by setting: (in C1CCOC1) 406 nm; (in CCCCCC) 406 nm; (in Cc1ccccc1) 406 nm; (in ClC(Cl)Cl) 406 nm; (in ClCCl) 406 nm.
In the case of `N#Cc1ccc(C#Cc2ccc(C#Cc3ccc(C#Cc4ccccc4C#N)cc3C#N)cc2C#N)cc1`, the absorption maximum is 356 nm (in C1CCOC1); 352 nm (in CC#N); 357 nm (in CN(C)C=O); 357 nm (in ClC(Cl)Cl); 358 nm (in c1ccccc1).
In the case of `COc1ccc(NC(=O)C(C(=O)Nc2ccc(OC)cc2)C(c2ccccc2O)c2c(C)[nH]c3ccccc23)cc1` (stereo unspecified), the absorption maximum reads like this: (in CO) 258 nm; (in CS(C)=O) 266 nm.
In turn, `Cc1cc(C)c(-c2cc(-c3c(C)cc(C)cc3C)c3ccc4c(-c5c(C)cc(C)cc5C)cc(-c5c(C)cc(C)cc5C)c5ccc2c3c54)c(C)c1` gave an absorption maximum (in ClCCl) of 363 nm.
Consider `CC(C)(C)C1Nc2c(Br)cc(Br)cc2C(=O)N1Cc1ccccc1` (stereo unspecified), for which the absorption maximum is, setting by setting: (in CC#N) 360 nm; (in CCCCCCCCCCCCCCCC) 351 nm; (in CO) 368 nm; (in ClC(Cl)Cl) 359 nm; (in c1ccccc1) 356 nm.
The compound `Cc1ccc2nc3cc4c(cc3c(-c3ccccc3)c2c1)[Si](C)(C)O[Si]4(C)C` registered an absorption maximum (in ClCCl) of 370 nm.
As to `C(=C\c1cnccn1)/c1ccc(N(c2ccccc2)c2ccccc2)cc1`, the absorption maximum runs as follows: (in C1CCOC1) 393 nm; (in CC#N) 391 nm; (in CS(C)=O) 400 nm; (in ClCCl) 394 nm.
For the compound `CCCCCCCCCCCCCCCCCCOC(=O)/C=C/C1=CC2=C(c3c(C)cc(C)cc3C)c3cccn3[B-](F)(F)[N+]2=C1`, the absorption maximum (in ClCCl) was determined as 538 nm.
As to `c1ccc(B2Nc3cc4c(cc3-c3sccc32)NB(c2ccccc2)c2ccsc2-4)cc1`, for the setting “in ClCCl”, the absorption maximum worked out at 405 nm.
Take `CCCCCCCCCCCCn1nnc(-c2ccc(C#Cc3ccc(C#Cc4ccc(-c5nnn(CCCCCCCCCCCC)n5)cc4)c4nc5c6ccccc6c6ccccc6c5nc34)cc2)n1`: the absorption maximum came to 428 nm (in C1CCOC1), 428 nm (in Cc1ccccc1) and 428 nm (in ClCCl).
In the case of `N#Cc1c2oc3ccccc3oc2c(C#N)c2oc3ccccc3oc12`, for the setting “in ClC(Cl)Cl”, the absorption maximum came out at 430 nm.
For `COc1ccc2c(c1)CCC1=C(C#Cc3cc4ccccc4c4ccccc34)O[B-](F)(F)[O+]=C12`, the absorption maximum (in ClCCl) was 465 nm.
